“Also recorded” adds a separate entry of the source.
Key:
Assay type in all cases: cell-based
[1] = test system: CAR, constitutive androstane receptor; experiment: Nuclear receptor transactivation assay in Caco-2 cells (CAR); conditions: FIG. 4
Experimental: FIG. 4. Nuclear Receptor transactivation assays in caco-2 (day 0) cells. Methods used are published (33). Assays were performed at least two times in triplicate CAR, constitutive androstane receptor; TCBOPOP, CAR ligand; LXR, Liver X receptor; T0901315, LXR ligand. n.s, not significant.
IPA/Indoles can have weak (˜2 fold) but important effects on the activation of other nuclear receptors (e.g., CAR, LXR) (33). […] Some receptors, specifically CAR and LXR, can act to induce liver steatosis (79, 83-86) and hepatocarcinogenesis (CAR) (80, 84, 87-89) and thus, avoiding excessive activation of these nuclear receptors in the context of PXR activation would be important. […] CDK5 (along with CDK2) are important kinases that phosphorylate and inhibit PXR activation (90). Accordingly, based on the data, it is unlikely that FKK5 activates PXR via inhibition of CDK5.

plated hepatocytes = experiment: LDH release assay in plated hepatocytes; conditions: 24 h and 48 h exposure; FIG. 1
Experimental: FIG. 1A-1B. FKK compound cytotoxicity assay. (A) MTT cell cytotoxicity assay in LS180 cells lines (NCBI Bookshelf: world wide web ncbi.nlm.nih.gov/books/NBK144065/). […] (B) LDH release assay performed in plated hepatocytes after a 24 h and 48 h exposure. For both panels, assays were performed at least two times in triplicate.
A very unique feature of simple indole structures (FKK1-10) is that they are predicted to have very short systemic residence times limiting systemic drug exposure and any potential for off-target effects in organs other than the intestines (78).

IL-8 = experiment: TNF-induced IL-8 in human intestinal organoids; conditions: initial experiment n=2, FIG. 12
Text: Intestinal organoids were developed using human small intestines and stem cell isolation and propagation in vitro.

PXR = biological target: T1, PXR (Homo sapiens, UniProt O75469); experiment: PXR activation (transactivation) luciferase assay in LS180 cells; set-up: co-transfecting full-length expressing human PXR plasmid (91) and p3A4 luciferase reporter (92) in LS180 or Caco-2 cells; expressed in transfected cells; host or cells: LS180
T1 sequence (O75469 1-434): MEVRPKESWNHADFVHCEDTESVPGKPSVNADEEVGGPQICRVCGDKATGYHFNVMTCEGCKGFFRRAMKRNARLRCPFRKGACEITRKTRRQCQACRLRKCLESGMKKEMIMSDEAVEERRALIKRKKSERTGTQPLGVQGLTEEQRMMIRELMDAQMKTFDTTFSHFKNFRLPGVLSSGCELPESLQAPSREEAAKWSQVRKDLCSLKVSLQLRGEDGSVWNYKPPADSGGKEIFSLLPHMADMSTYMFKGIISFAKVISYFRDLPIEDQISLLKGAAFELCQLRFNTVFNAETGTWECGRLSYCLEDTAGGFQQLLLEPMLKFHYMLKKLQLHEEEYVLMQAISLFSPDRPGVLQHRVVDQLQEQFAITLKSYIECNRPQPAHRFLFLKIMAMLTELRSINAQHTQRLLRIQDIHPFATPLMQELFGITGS
Experimental: FIG. 6A-6E. Activation and inhibition studies with different FKK compounds. (A) PXR activation, LS180 cells (upper), and PXR inhibition, LS180 cells, co-incubation with RIF (lower). (B) AhR activation, AZ-AHR cells (upper), and AhR inhibition, AZ-AHR cells, co-incubation with TCDD (lower). (C) GR activation, AZ-GR cells (upper), and VDR activation, IZ-VDRE cells (lower). (D) TR activation, PZ-GR cells (upper), and AR activation, AIZ-AR cells (lower). (E) Displacement of radiolabeled 9-cis-retinoic acid (RA) by FKK compounds.
Two molecules that were readily available (Ryan Scientific: FKK999 & BAS451) were purchased and tested in vitro for PXR activation using a HepG2 reporter assay. […] […]. […] In general, reporter cell lines are efficient ways to screen for PXR ligands (72). In the LS180 intestinal cell line, the PXR activation assay involves a transient transfection system using a specific PXR plasmid and reporter plasmid (CVmax % 11.2+2; CVmid % 10.8+0.1.4; Signal Window 6.2+1.1; Z′ factor 0.51+0.005).
All the synthesized compounds and intermediates were tested for their potential to activate PXR and/or AhR via luciferase assays. The PXR activation assays were performed by co-transfecting full-length expressing human PXR plasmid (91) and p3A4 luciferase reporter (92) in LS180 or Caco-2 cells. AhR activation conducted using stably co-transfected HepG2 reporter cells as previously described (93). […] With the exception of FKK6, there was no significant inhibition of TCDD-induced AhR activation. […] Independent verification of AhR activity of randomly selected compounds—FKK 5, 6 and 9—was performed in a separate laboratory (GHP). Nuclear receptor selectivity was assessed for FKK compounds for GR, ADR, TR and AR using cell-based luciferase assays previously described (93-102). There was no observed biologically significant (>2-fold) induction of nuclear receptor activity (FIG. 6C). RXR ligand displacement is only significant for FKK1 and FKK8 (FIG. 6D).

In the case of `O=C(c1ccncc1)c1cc2ccccc2n1S(=O)(=O)c1ccccc1` [FKK5], the CAR activation [1] is reported as “does not activate”, the “CAR function with increasing concentrations” value [1] is reported as “CAR function is inhibited” and the cytotoxicity in hepatocytes (plated hepatocytes) is reported as “no cytotoxicity observed”. For the same molecule, the “TNF-induced IL-8 expression” value (IL-8) was “significant attenuation; also recorded: reduces pro-inflammatory cytokine IL-8 expression”, the EC50 (PXR) was 1680 nM and the Emax (PXR; read-out: Emax/Emax[rifampicin, positive control]) was 128%.
